The values below are quoted from earlier work in patent publication US20090324709A1, “LIPOSOMAL FORMULATIONS” (Italfarmaco, S.A., priority 2004, published 2009).

For the data set the following is noted: for release of 5-FU: DSPC liposomes, six hours after preparation; for retention of acyclovir: neutral egg PC:cholesterol 15:1 DRV liposomes; for retention of iododeoxyuridine: egg PC:cholesterol 15:1 DRV liposomes.

The structures appear in SMILES notation. Like-named read-outs stand apart in the source and are kept apart here.

Regarding `O=c1[nH]cc(F)c(=O)[nH]1` [Example 5-FU, 5-fluorouracil], the “release of 5-FU” value was 10% (25° C.) and 50% (37° C.). Under “LUV DSPC liposomes, 60 minutes”, the 5-FU that escapes entry is “more than 75%”. The “escape of 5-FU” value (LUV SPC, SPC:Cholesterol (1:1), SPC:Cholate (84:16), in saturated 5-FU solution, after 50 minutes) was “more than 50%”. In addition, the “release of the drug on eliminating the pH gradient” value (LUV liposomes actively charged through pH gradient (U.S. Pat. No. 6,083,530)) is reported as “immediate”. Moreover, the “release of initially encapsulated 5-FU” value (SPC:Cholate liposomes in solution without 5-FU, after 5 minutes) is on record as 80%. Where the note is “multilamellar liposomes of sphingomyelin, cholesterol and dicetyl-phosphate, 40 hours at 25° C.”, the “5-FU initially encapsulated still inside the liposomes” value was 20%. Also, for the setting “type A liposome soy lecithin:cholesterol hemisuccinate:cholesterol (10:1:4), 28 days at room temperature”, the 5-FU remaining inside is given as 10%. The 5-FU released (type B liposomes DPPC:cholesterol hemisuccinate:cholesterol (10:1:4), 42 days at room temperature) was 40%.

`Nc1nc2c(ncn2COCCO)c(=O)[nH]1` [acyclovir]: the retention of acyclovir is 48% (24 hours at 37° C.) and 44% (14 days at 4° C.).

With `O=c1[nH]c(=O)n([C@H]2C[C@H](O)[C@@H](CO)O2)cc1F` [floxuridine], where the note is “MLV SM:CHOL:DCP 4.8:2.8:1, 40 hours at 25° C.”, the retention of floxuridine is recorded as 70%.

For `O=c1[nH]c(=O)n([C@H]2C[C@H](O)[C@@H](CO)O2)cc1I` [iododeoxyuridine], the retention of iododeoxyuridine was 50% (24 hours at 4° C.) and 20% (one hour at 37° C.).

In the case of `CN(Cc1cnc2nc(N)nc(N)c2n1)c1ccc(C(=O)N[C@@H](CCC(=O)O)C(=O)O)cc1` [methotrexate], the methotrexate retention (EPC liposomes, MLV and REV, 30 days at 4° C.) is listed as 70%; the methotrexate retention (EPC liposomes, MLV and REV, 30 days at 25° C.) is listed as 40%; the methotrexate retention (EPC liposomes, MLV and REV, 30 days at 37° C.) is reported as below 10%; the methotrexate retention (MLV HSPC:CHOL and HSPC:CHOL:DCP, 8 hours at 37° C.) is recorded as 35%.
